Here are results for ten compounds from US7427637B2, “Mitotic kinesin inhibitors” (Merck & Co. Inc., priority 2003, dated 2008).

A value given as a limit tells only on which side of the number the result lay.

The target of this test is T1, human KSP motor domain (KSP(367H)) (Homo sapiens, UniProt P52732).
T1 construct: were used to amplify the motor domain and the neck linker region; made in house; host or cells: E. coli BL21 (DE3), pRSETa
T1 sequence (P52732 18-359 limits assumed): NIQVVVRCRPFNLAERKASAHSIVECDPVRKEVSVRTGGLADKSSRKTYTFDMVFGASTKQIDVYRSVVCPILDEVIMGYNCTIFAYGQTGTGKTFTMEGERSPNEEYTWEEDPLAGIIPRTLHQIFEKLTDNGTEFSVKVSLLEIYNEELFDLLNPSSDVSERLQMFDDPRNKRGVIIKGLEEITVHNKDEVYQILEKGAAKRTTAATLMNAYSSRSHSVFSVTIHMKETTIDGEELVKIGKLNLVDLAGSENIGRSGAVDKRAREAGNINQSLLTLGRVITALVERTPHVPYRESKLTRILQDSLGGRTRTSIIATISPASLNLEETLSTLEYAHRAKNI
The test is described as follows: Kinesin ATPase in vitro assay. The following applies: kinesin motor domain with microtubules, 1 mM ATP, 23° C.; free phosphate by quinaldine red/ammonium molybdate, absorbance 540 nm. The test is classed as biochemical. From the text: I. Kinesin ATPase In Vitro Assay
Cloning and Expression of Human Poly-histidine Tagged KSP Motor Domain_(KSP(367H))
Plasmids for the expression of the human KSP motor domain construct were cloned by PCR using a pBluescript full length human KSP construct (Blangy et al., Cell, vol. 83, pp 1159-1169, 1995) as a template. The N-terminal primer 5′-[…] (SEQ. ID. NO.: 1) and the C-terminal primer 5′-[…] […] (SEQ. ID. NO.: 2) were used to amplify the motor domain and the neck linker region. The PCR products were digested with AseI and XhoI, ligated into the NdeI/XhoI digestion product of pRSETa (Invitrogen) and transformed into E. coli BL21 (DE3).
Cells were grown at 37° C. to an OD600 of 0.5. After cooling the culture to room temperature expression of KSP was induced with 100 μM IPTG and incubation was continued overnight. Cells were pelleted by centrifugation and washed once with ice-cold PBS. Pellets were flash-frozen and stored −80° C.
Cell pellets were thawed on ice and resuspended in lysis buffer (50 mM K-HEPES, pH 8.0, 250 mM KCl, 0.1% Tween, 10 mM imidazole, 0.5 mM Mg-ATP, 1 mM PMSF, 2 mM benzimidine, 1× complete protease inhibitor cocktail (Roche)). Cell suspensions were incubated with 1 mg/ml lysozyme and 5 mM β-mercaptoethanol on ice for 10 minutes, followed by sonication (3×30 sec). All subsequent procedures were performed at 4° C. Lysates were centrifuged at 40,000×g for 40 minutes. Supernatants were diluted and loaded onto an SP Sepharose column (Pharmacia, 5 ml cartridge) in buffer A (50 mM K-HEPES, pH 6.8, 1 mM MgCl2, 1 mM EGTA, 10 μM Mg-ATP, 1 mM DTT) and eluted with a 0 to 750 mM KCl gradient in buffer A. Fractions containing KSP were pooled and incubated with Ni-NTA resin (Qiagen) for one hour. The resin was washed three times with buffer B (Lysis buffer minus PMSF and protease inhibitor cocktail), followed by three 15-minute incubations and washes with buffer B. Finally, the resin was incubated and washed for 15 minutes three times with buffer C (same as buffer B except for pH 6.0) and poured into a column. KSP was eluted with elution buffer (identical to buffer B except for 150 mM KCl and 250 mM imidazole). KSP-containing fractions were pooled, made 10% in sucrose, and stored at −80° C.
Microtubules are prepared from tubulin isolated from bovine brain. Purified tubulin (>97% MAP-free) at 1 mg/ml is polymerized at 37° C. in the presence of 10 μM paclitaxel, 1 mM DTT, 1 mM GTP in BRB80 buffer (80 mM K-PIPES, 1 mM EGTA, 1 mM MgCl2 at pH 6.8). The resulting microtubules are separated from non-polymerized tubulin by ultracentrifugation and removal of the supernatant. The pellet, containing the microtubules, is gently resuspended in 10 μM paclitaxel, 1 mM DTT, 50 μg/ml ampicillin, and 5 μg/ml chloramphenicol in BRB80.
The kinesin motor domain is incubated with microtubules, 1 mM ATP (1:1 MgCl2: Na-ATP), and compound at 23° C. in buffer containing 80 mM K-HEPES (pH 7.0), 1 mM EGTA, 1 mM DTT, 1 mM MgCl2, and 50 mM KCl. The reaction is terminated by a 2-10 fold dilution with a final buffer composition of 80 mM HEPES and 50 mM EDTA (or, alternately, with a 1:1 addition of reaction volume to stop buffer (1.8M KCl and 50 mM EDTA)). Free phosphate from the ATP hydrolysis reaction is measured via a quinaldine red/ammonium molybdate assay by adding a 1.5 times volume of quench C (e.g., to a mixture of 40 μl reaction volume+40 μl stop buffer is then added 120 μl quench C). Quench A contains 0.1 mg/ml quinaldine red and 0.14% polyvinyl alcohol; quench B contains 12.3 mM ammonium molybdate tetrahydrate in 1.15 M sulfuric acid. Quench C is a 2:1 ratio of quench A:quench B The reaction is incubated for 5-10 minutes at 23° C., and the absorbance of the phospho-molybdate complex is measured at 540 nm.
For `O=C1CN2[C@@H](CN1)C(c1cc(F)ccc1F)=C[C@H]2c1ccccc1` (racemic) [Compound 5-1, (±)-(6S,8aR and 6R,8aS)-8-(2,5-Difluorophenyl)-6-phenyl-1,2,6,8a-tetrahydropyrrolo[1,2-a]pyrazin-3(4H)-one], the IC50 was not above 50 µM.

Regarding `O=C1NCC2C(c3cc(F)ccc3F)=CC(c3ccccc3)N12` (racemic) [Compound 2-4a, (±)-7-(2,5-Difluorophenyl)-5-phenyl-1,2,5,7a-tetrahydro-3H-pyrrolo[1,2-c]imidazol-3-one], the IC50 was not above 50 µM.

`CN1CC(=O)N2[C@@H](C1)C(c1cc(F)ccc1F)=C[C@H]2c1ccccc1` (racemic) [Compound 4-1, (±)-(6S,8aR and 6R,8aS)-8-(2,5-Difluorophenyl)-2-methyl-6-phenyl-2,3,6,8a-tetrahydropyrrolo[1,2-a]pyrazin-4(1H)-one]: the IC50 was not above 50 µM. `CCN1C[C@H]2C(c3cc(F)ccc3F)=C[C@@H](c3ccccc3)N2C1=O` (racemic) [Compound 2A-1b, (±)-(5S,7aR)-7-(2,5-Difluorophenyl)-2-ethyl-5-phenyl-1,2,5,7a-tetrahydro-3H-pyrrolo[1,2-c]imidazol-3-one] had an IC50 not above 50 µM. With `O=C1OCC2C(c3cc(F)ccc3F)=CC(c3ccccc3)N12` (racemic) [Compound 1-9a, (±)-(5S,7aR and 5R,7aS)-7-(2,5-Difluorophenyl)-5-phenyl-2,7a-dihydro-1H-pyrrole[1,2-c][1,3]oxazol-3-one], the IC50 is not above 50 µM. Turning to `CN1C[C@H]2C(c3cc(F)ccc3F)=C[C@@H](c3ccccc3)N2C1=O` (racemic) [Compound 2A-1a, (±)-(5S,7aR)-7-(2,5-Difluorophenyl)-2-methyl-5-phenyl-1,2,5,7a-tetrahydro-3H-pyrrolo[1,2-c]imidazol-3-one], the IC50 is not above 50 µM.

The compound `O=C1CNC[C@H]2C(c3cc(F)ccc3F)=C[C@@H](c3ccccc3)N12` (racemic) [Compound 3-2a, (±)-(2S,5R and 2R,5S)-7-(2,5-Difluorophenyl)-5-phenyl-1,2,5,7a-tetrahydro-3H-pyrrolo[1,2-a]pyrazin-4(1H)-one] gave an IC50 not above 50 µM. In turn, `CCN(CC)CCN1C[C@H]2C(c3cc(F)ccc3F)=C[C@@H](c3ccccc3)N2C1=O` (racemic) [Compound 2A-1d, (±)-(5S,7aR)-7-(2,5-Difluorophenyl)-2-[2-(diethylamino)ethyl]-5-phenyl-1,2,5,7a-tetrahydro-3H-pyrrolo[1,2-c]imidazol-3-one] registered a half-inhibitory concentration (IC50) not above 50 µM. To `O=C1CNCC2C(c3cc(F)ccc3F)=CC(c3ccccc3)N12` (racemic) [Compound 3-2b, (±)-(2S,5S and 2R,5R)-7-(2,5-Difluorophenyl)-5-phenyl-1,2,5,7a-tetrahydro-3H-pyrrolo[1,2-a]pyrazin-4(1H)-one] belongs not above 50 µM; to `CN(C)CCN1C[C@H]2C(c3cc(F)ccc3F)=C[C@@H](c3ccccc3)N2C1=O` (racemic) [Compound 2A-1c, (±)-(5S,7aR)-7-(2,5-Difluorophenyl)-2-[2-(dimethylamino)ethyl]-5-phenyl-1,2,5,7a-tetrahydro-3H-pyrrolo[1,2-c]imidazol-3-one], not above 50 µM.

The IC50 is the concentration needed to halve the response being measured.
